These results are taken from patent publication US9642847B2, “Combinational compositions and methods for treatment of cancer” (ArQule, Inc., priority 2009, dated 2017).

Values joined by “and” are separate entries in the source; they are usually repeats but may differ in a detail not shown here. Identical values can stand only once. Like-named read-outs stand apart in the source and are kept apart here.

The subject of data set [1] is 22RV1. In words: 72 hr MTS assay, combination index by CalcuSyn. The format is cell-based, human. To be noted: 22RV1 (Prostate), chemotherapeutic agent combined with Agent A.
The test system of data set [2] is DU-145. In words: 72 hr MTS assay, combination index by CalcuSyn. It is filed as cell-based, human. Conditions: DU-145 (Prostate), chemotherapeutic agent combined with Agent A.
The subject of data set [3] is Hsc-39 human gastric tumor xenograft. As to the kind of experiment: Hsc-39 human gastric tumor xenograft model. It is filed as in vivo.
Method: (§2) Specifically, gastric cancer cell lines MKN-45 and Hsc-39 were tested.
Data set [4] concerns MKN-45 human gastric tumor xenograft. As to the kind of experiment: MKN-45 human gastric tumor xenograft model (Example 88).
Method: as §2
Data set [5] has as its system MIA PaCa-2 pancreatic tumor cells. In words: 72 h MTT proliferation assay, equipotent fixed-ratio combination, isobologram analysis (Calcusyn).
Method: Cell culture and reagents: NCI-H441, PC-3, MIA PaCa-2, HeLa, HT-29 and A549 cancer cell lines (American Type Culture Collection) were cultured in Dulbecco's modified Eagle's medium containing 10% fetal bovine serum, 100 units/mL penicillin, 100 g/mL streptomycin, and 2 mM L-glutamine.
Duplicate independent experiments were performed for each cell line/drug combination. Data were then analyzed by Calcusyn™ (Biosoft, Cambridge, UK) data analysis software.
Cell survival analysis. In some experiments, cell survival was determined by the 3-(4,5-dimethylthiazol-2-yl)-2,5-diphenyl tetrazolium bromide (MTT) assay. Briefly, cells were plated in a 96-well plate at 5-10,000 cells per well, cultured for 24 hours in complete growth medium, and then treated with various drugs and drug combinations for 72 hours. […] Data were normalized to untreated controls and analyzed with Microsoft Excel.
Median effect plots and isobolograms were performed for each experiment.
The subject of data set [6] is PC-3 cells. The data set is described as above.
In data set [7] the test system is NCI-H441 non-small cell lung cancer cells. The data set is described as above. The format is cell-based, human. An excerpt: (§1) Erlotinib is an inhibitor of the epidermal growth factor receptor and is indicated for the treatment of patients with locally advanced or metastatic non-small cell lung cancer after failure of at least one prior chemotherapy regimen, and is indicated for the first-line treatment of patients with locally advanced, unresectable or metastatic pancreatic cancer.

Data set [8] relates to HT29 colon cancer cells. Described as above. Conditions: Homo sapiens. The format is cell-based.
Excerpt: as §1
Gefitinib is an inhibitor of the EGF receptor.

The subject of data set [9] is subcutaneous NCI-H522 NSCLC tumors. Conditions: for tolerability: mouse, in vivo, po. As to the method:
All regimens were orally administered once daily for 21 days. Tumor sizes were evaluated periodically during treatment at the indicated days post-inoculation.

For data set [10], the system named is NCI-H441 NSCLC human tumor xenograft. As to the kind of experiment: NCI-H441 human lung tumor xenograft model. To be noted: for BW loss: on day 4. The format is in vivo. On the procedure: Erlotinib was administered daily at 100 mg/kg or 50 mg/kg orally, five days a week for four weeks.
Gefitinib was administered daily at 50 mg/kg orally, five days a week for four weeks.
Background: A xenograft is tissue or cells of one species grown in another, often human tumour cells in immunodeficient mice.

In data set [11] the test system is MKN-45 human gastric tumor xenograft. The format is in vivo. Conditions: for BW loss: on day 21. On the procedure: 5-FU was administered daily at 10 mg/kg intravenously, five days a week for two weeks. TS-1 was administered daily at 10 mg/kg orally, five days a week for two weeks. Capecitabine was administered daily at 360 mg/kg orally, five days a week for two weeks. CDDP was administered weekly at 5 mg/kg intravenously for two weeks.

The target of data set [12] is T1, c-Met (Homo sapiens, UniProt P08581). In words: c-Met biochemical assays.
In data set [13] the target is T1, c-Met. As to the kind of experiment: c-Met cell-based assays. Conditions: a number of cell-based assays.
The test system of data set [14] is AsPC-1. As to the kind of experiment: 72 hr MTS cytotoxicity assay, combination with gemcitabine. It is filed as cell-based, human. To be noted: AsPC-1 (Pancreatic), chemotherapeutic agent combined with Agent A. Background: Formazan colour is commonly taken as a measure of viable cells.
Method: (§3) MIA PaCa-2 (also referred to as PACA2), PANC-1, CFPAC-1, and Hs766T human pancreatic cell lines were maintained in DMEM supplemented with 10% fetal bovine serum (FBS), penicillin, streptomycin, and fungizone. AsPC-1 cells were maintained in RPMI supplemented with 10% FBS, penicillin, streptomycin, and fungizone. HPAF-II cells were maintained in MEM supplemented with 10% FBS, penicillin, streptomycin, and fungizone. […] MTS reagent (Promega, Madison, Wis.) was added to each well and plates were incubated for 4 hr at 37° C.
For data set [15], the system named is HPAF-II. The description is as above. The format is cell-based, human. Conditions: HPAF-II (Pancreatic), chemotherapeutic agent combined with Agent A.
Method: as §3
Data set [16] relates to PANC-1. Described as above. Conditions: PANC-1 (Pancreatic), chemotherapeutic agent combined with Agent A. It is filed as cell-based, human.
Method: as §3
[17] abbreviates: Homo sapiens, MIA PaCa-2, read-out: IC50, predicted, MIA PaCa-2 cells, predicted value used to set the ratio.
Where [18] appears, read: Homo sapiens, PC-3, 72 h, PC-3, 72 h, single agents and fixed-ratio combination.
Setting [19] is: Homo sapiens, PC-3, read-out: IC50, predicted, PC-3 cells, predicted value used to set the ratio.
The mark [20] stands for this setting: Homo sapiens, NCI-H441, NCI-H441 NSCLC cells, predicted value used to set the ratio, read-out: IC50, predicted.
Setting [21] is: Agent A 300 mg/kg p.o. qd × 5 × 2.
[22] abbreviates: Agent A 300 mg/kg p.o. qd × 5 × 2, on day 10.
Where [23] appears, read: Gefitinib 50 mg/kg p.o. qd × 5 × 4.
Setting [24] is: Erlotinib 50 mg/kg p.o. qd × 5 × 4.
[25] abbreviates: Erlotinib 100 mg/kg p.o. qd × 5 × 4.
Setting [26] is: Capecitabine 360 mg/kg p.o. qd × 5 × 2.

T1 sequence (P08581 25-1390): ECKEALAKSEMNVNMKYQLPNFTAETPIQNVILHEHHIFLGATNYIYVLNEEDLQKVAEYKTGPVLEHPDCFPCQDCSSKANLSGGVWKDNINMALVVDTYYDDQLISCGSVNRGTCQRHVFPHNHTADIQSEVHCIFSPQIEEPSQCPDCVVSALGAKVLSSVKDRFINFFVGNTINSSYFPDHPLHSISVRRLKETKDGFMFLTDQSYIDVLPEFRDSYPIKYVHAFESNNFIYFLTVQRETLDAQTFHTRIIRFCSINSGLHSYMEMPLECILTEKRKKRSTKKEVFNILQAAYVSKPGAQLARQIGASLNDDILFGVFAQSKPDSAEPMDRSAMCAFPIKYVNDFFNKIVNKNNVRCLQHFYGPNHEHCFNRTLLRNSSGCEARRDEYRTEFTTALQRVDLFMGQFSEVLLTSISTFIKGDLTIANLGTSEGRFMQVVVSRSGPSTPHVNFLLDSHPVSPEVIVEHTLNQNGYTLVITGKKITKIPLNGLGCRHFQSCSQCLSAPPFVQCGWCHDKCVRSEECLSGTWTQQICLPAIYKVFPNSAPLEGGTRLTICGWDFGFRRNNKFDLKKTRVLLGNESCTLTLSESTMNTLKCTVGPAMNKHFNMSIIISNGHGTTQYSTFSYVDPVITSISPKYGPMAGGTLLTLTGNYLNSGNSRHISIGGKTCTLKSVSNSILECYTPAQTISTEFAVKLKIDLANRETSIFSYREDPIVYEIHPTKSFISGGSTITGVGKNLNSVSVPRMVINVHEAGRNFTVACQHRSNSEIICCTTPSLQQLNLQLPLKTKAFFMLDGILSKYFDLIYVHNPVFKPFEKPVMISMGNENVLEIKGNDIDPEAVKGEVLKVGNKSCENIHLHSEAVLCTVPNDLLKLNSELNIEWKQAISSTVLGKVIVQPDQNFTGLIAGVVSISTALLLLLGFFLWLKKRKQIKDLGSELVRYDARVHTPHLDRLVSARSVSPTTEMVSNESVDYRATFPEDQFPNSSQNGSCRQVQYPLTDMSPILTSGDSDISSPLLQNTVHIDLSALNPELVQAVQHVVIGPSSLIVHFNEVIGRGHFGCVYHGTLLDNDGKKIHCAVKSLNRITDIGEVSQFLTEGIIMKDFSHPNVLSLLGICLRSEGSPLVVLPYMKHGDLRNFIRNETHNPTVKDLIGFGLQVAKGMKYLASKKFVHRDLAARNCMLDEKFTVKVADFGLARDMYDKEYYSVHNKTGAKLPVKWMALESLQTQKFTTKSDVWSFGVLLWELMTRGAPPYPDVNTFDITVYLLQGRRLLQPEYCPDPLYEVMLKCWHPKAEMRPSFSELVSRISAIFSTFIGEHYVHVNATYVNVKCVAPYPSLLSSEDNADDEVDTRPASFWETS

Regarding `CC(=O)O[C@@]12CO[C@@H]1C[C@H](O)[C@@]1(C)C(=O)[C@H](O)C3=C(C)[C@@H](OC(=O)[C@H](O)[C@@H](NC(=O)OC(C)(C)C)c4ccccc4)C[C@@](O)([C@@H](OC(=O)c4ccccc4)[C@H]21)C3(C)C` [Docetaxel, docetaxel], the “Combination Conclusion” value in data set [1] and in [2] was “Synergism” each time. Also, the “Combination Index Values at ED50” value in data set [1] and in data set [2] was 0.7 each time. Further, the “T/C Min” value is recorded as 0.46 (17) in data set [3] (Docetaxel 7.5 mg/kg i.v. single, on day 17); 0.40 (17) in data set [3] (Docetaxel 15 mg/kg i.v. single, on day 17); 0.63 (15) in [4] (Docetaxel 7.5 mg/kg i.v. single, on day 15); 0.68 (7) in [4] (Docetaxel 15 mg/kg i.v. single, on day 7). The Mortality in data set [4] (Docetaxel 7.5 mg/kg i.v. single) and in data set [4] (Docetaxel 15 mg/kg i.v. single) was 0/5 throughout. Besides, the IC50 in [5] (Homo sapiens, MIA PaCa-2, 72 h, MIA PaCa-2, 72 h, single agents and fixed-ratio combination) was 5.1 nM; in [5] (setting [17]) it was around 5 nM; in data set [6] (setting [18]) it was 6 nM; in data set [6] (setting [19]), around 5 nM; in [6] (PC-3, 72 h, single agents and fixed-ratio combination, listed as Taxotere) it was 3.5 nM.
Turning to `O=C1NC(=O)[C@@H](c2cn3c4c(cccc24)CCC3)[C@@H]1c1c[nH]c2ccccc12` (single isomer, unassigned) [Agent A], the IC50 in data set [7] (setting [20]) is 300 nM; in data set [8] (HT-29, 72 h, HT29, 72 h, single agents and fixed-ratio combination, read-out: IC50) it was 179 nM; in data set [8] (HT-29, HT29 cells, predicted value used to set the ratio, read-out: IC50, predicted) it was 150 nM; in data set [5] (setting [17]) it was 150 nM; in data set [6] (setting [18]), 875 nM; in data set [6] (setting [19]), 1000 nM. In addition, in data set [6] (PC-3, 72 h, single agents and fixed-ratio combination), the IC50 is 553 nM. Moreover, in data set [9], the tolerability entry was “well-tolerated”. Moreover, the “effects on body weight gain” value in data set [9] (oral gavage once daily for 21 days, all cohorts) is “no adverse effects on body weight gain”. In addition, the Mortality in data set [10] (Agent A 300 mg/kg p.o. qd × 5 × 4), in data set [11] (setting [21]) and in data set [4] (setting [21]) was 0/5 throughout. The “T/C Min” value in data set [10] (Agent A 300 mg/kg p.o. qd × 5 × 4, on day 17) was 0.52 (17); in data set [11] (Agent A 300 mg/kg p.o. qd × 5 × 2, on day 4), 0.50 (4); in data set [3] (setting [22]), 0.63 (10); in [4] (Agent A 300 mg/kg p.o. qd × 5 × 2, on day 15), 0.61 (15). Moreover, the BW loss in [11] (setting [21]) was −1.7 (21) g; in data set [4] (setting [22]), −1.3 (10) g. Also, the c-Met activity result in data set [12] and in [13] was “inhibit c-Met activity” in each case.
For the compound `COc1cc2ncnc(Nc3ccc(F)c(Cl)c3)c2cc1OCCCN1CCOCC1` [Gefitinib, gefitinib], in [10] (setting [23]), the Mortality is 0/5 and the BW loss is given as −0.5 (4) g. Besides, in data set [10] (Gefitinib 50 mg/kg p.o. qd × 5 × 4, on day 21), the “T/C Min” value is recorded as 0.60 (21).
With `C#Cc1cccc(Nc2ncnc3cc(OCCOC)c(OCCOC)cc23)c1` [Erlotinib, erlotinib], the IC50 was 3560 nM in data set [7] (Homo sapiens, NCI-H441, 72 h, NCI-H441, 72 h, single agents and fixed-ratio combination, read-out: IC50); around 1000 nM in data set [7] (setting [20]); 3160 nM in data set [7] (NCI-H441, 72 h, single agents and fixed-ratio combination, read-out: IC50); 56300 nM in data set [8] (HT-29, HT29, 72 h, single agents and fixed-ratio combination, read-out: IC50). For the same compound, the Mortality in data set [10] (setting [24]) and in [10] (setting [25]) was 0/5 throughout. Moreover, the BW loss is −0.6 (4) g in data set [10] (setting [24]) and −1.0 (4) g in data set [10] (setting [25]). Besides, the “T/C Min” value in data set [10] (Erlotinib 50 mg/kg p.o. qd × 5 × 4, on day 17) is recorded as 0.59 (17); in [10] (Erlotinib 100 mg/kg p.o. qd × 5 × 4, on day 17), 0.50 (17).
In turn, `O=C1NC(=O)C(c2cn3c4c(cccc24)CCC3)=C1c1ccc(OCc2ccccc2)cc1` [Example 66, 3-[4-(benzyloxy)phenyl]-4-(5,6-dihydro-4H-pyrrolo[3,2,1-ij]quinolin-1-yl)-1H-pyrrole-2,5-dione] gave a melting point of 262 to 265 °C.
For `CCCCCOC(=O)Nc1nc(=O)n([C@@H]2O[C@H](C)[C@@H](O)[C@H]2O)cc1F` [Capecitabine, capecitabine], in data set [11] (setting [26]), the Mortality is on record as 0/5 and the BW loss is recorded as −1.4 (21) g. Moreover, the “T/C Min” value in data set [11] (Capecitabine 360 mg/kg p.o. qd × 5 × 2, on day 14) was 0.42 (14).
As for `N.N.[Cl][Pt][Cl]` [Cisplatin, cisplatin], in data set [11] (Cisplatin 5 mg/kg i.v. Weekly × 2), the Mortality is recorded as 0/5. The “T/C Min” value in data set [11] (Cisplatin 5 mg/kg i.v. Weekly × 2, on day 10) is 0.55 (10). The IC50 in data set [5] (MIA PaCa-2, 72 h, single agents and fixed-ratio combination) is 3370 nM and 3790 nM.
`COc1cccc([C@@H]2C(=O)NC(=O)[C@H]2c2cn3c4c(cccc24)CCC3)c1` (racemic) [Example 68, (±)-Trans-3-(5,6-dihydro-4H-pyrrolo[3,2,1-ij]quinolin-1-yl)-4-(3-methoxyphenyl)pyrrolidine-2,5-dione] returned a melting point of 87 to 91 °C.
On the same count and under the same terms, the result for `O=C1NC(=O)[C@@H](c2cn3c4c(cccc24)CCC3)[C@@H]1c1cccc(O)c1` (racemic) [Example 69, (±)-Trans-3-(5,6-dihydro-4H-pyrrolo[3,2,1-ij]quinolin-1-yl)-4-(3-hydroxyphenyl)pyrrolidine-2,5-dione] reads 108 to 110 °C; that for `O=C1NC(=O)[C@@H](c2cn3c4c(cccc24)CCC3)[C@@H]1c1ccc(F)cc1` (racemic) [Example 70, (±)-Trans-3-(5,6-dihydro-4H-pyrrolo[3,2,1-ij]quinolin-1-yl)-4-(4-fluorophenyl)pyrrolidine-2,5-dione], 208 to 210 °C; that for `O=C1NC(=O)[C@@H](c2cn3c4c(cccc24)CCC3)[C@@H]1c1ccc(O)cc1` (racemic) [Example 72, (±)-Trans-3-(5,6-dihydro-4H-pyrrolo[3,2,1-ij]quinolin-1-yl)-4-(4-hydroxyphenyl)pyrrolidine-2,5-dione], 105 to 107 °C.
On the same count and under the same terms, the result for `O=C1NC(=O)C(c2cn3c4c(cccc24)CCC3)=C1c1ccc(F)cc1` [Example 67, 3-(5,6-dihydro-4H-pyrrolo[3,2,1-ij]quinolin-1-yl)-4-(4-fluorophenyl)-1H-pyrrole-2,5-dione] reads 234 to 235 °C.
Take `O=c1[nH]cc(F)c(=O)[nH]1` [Example 5-FU, fluorouracil]: in data set [11] (5-FU 10 mg/kg i.v. qd × 5 × 2), the Mortality is recorded as 0/5 and the BW loss is −3.4 (21) g. Also, in data set [11] (5-FU 10 mg/kg i.v. qd × 5 × 2, on day 14), the “T/C Min” value was 0.63 (14).
For the compound `Nc1ccn([C@@H]2O[C@H](CO)[C@@H](O)C2(F)F)c(=O)n1` [Gemcitabine, gemcitabine], the “Combination Conclusion” value in data set [14], in data set [15] and in data set [16] was “Synergism” throughout. Moreover, the “Combination Index Values at ED50” value in data set [14] is listed as 0.6; in data set [15], 0.2; in [16], 0.7.
Take `CNC(=O)c1cc(Oc2ccc(NC(=O)Nc3ccc(Cl)c(C(F)(F)F)c3)cc2)ccn1` [sorafenib]: the tolerability result in data set [9] is given as “well-tolerated”.

The IC50 is the concentration that gives 50% inhibition. What is called melting point is the temperature, or range, at which the solid turns liquid.
